Assay results from ChEMBL document CHEMBL1146353, “Synthesis of fluorescent molecular probes specific for the receptor of blepharismone, a mating-inducing pheromone of the ciliate Blepharisma japonicum” (2007).
Calls of active or inactive are those of the source. The calls are words filed in the database; no cut-off is given here.

Assays:
Blepharisma japonicum [1] = assay: Inhibition of blepharismone-induced monotypic pairing of Blepharisma japonicum R1072 upto 1 mM; type: functional
Blepharisma japonicum [2] = assay: Inhibition of blepharismone-induced monotypic pairing of Blepharisma japonicum R1072; type: functional

Compound | Inhibitory concentration (Blepharisma japonicum [1]) | Activity (Blepharisma japonicum [2])
O=C(Cc1ccc(-c2ccccc2)cc1)Nc1ccc(O)cc1C(=O)C[C@H](O)C(=O)O | 4.8 µM | –
O=C(CCCc1ccc2ccc3cccc4ccc1c2c34)Nc1ccc(O)cc1C(=O)C[C@H](O)C(=O)O | 4 µM | –
CC(=O)c1ccccc1NC(=O)CCCc1ccc2ccc3cccc4ccc1c2c34 | >1000 µM | inactive
CC(=O)c1ccccc1NC(=O)Cc1ccc(-c2ccccc2)cc1 | >1000 µM | inactive
